Measurements published in patent US8703768B2, “Nitrogen containing heteroaryl compounds” (Hoffmann-La Roche Inc., priority 2010, dated 2014).

The molecules below were run against human PDE10A (Homo sapiens (Human), UniProt Q9Y233) (assay: human PDE10A full length Scintillation Proximity Assay (SPA)). Details: 50 nM cGMP and 50 nM [3H]-cGMP, 20 minutes at room temperature; read-out: PDE10A inhibition IC50.
Format: biochemical
Procedure: The following test was carried out in order to determine the activity of the compounds of the present invention.
The human PDE10A full length assay was performed in 96-well micro titer plates. […] Non-specific activity was tested without the enzyme. The reaction was initiated by the addition of the substrate solution (cGMP and [^3H]-cGMP) and allowed to progress for 20 minutes at room temperature. The reaction was terminated by adding 25 μl of YSi-SPA scintillation beads (GE Healthcare, cat. # RPNQ0150) in 18 mM zinc sulphate solution (stop reagent). After 1 h under shaking, the plate was centrifuged one minute at 170 g to allow beads to settle. Afterwards, radioactive counts were measured on a Perkin Elmer TopCount Scintillation plate reader.

Sequence of human PDE10A (Q9Y233 other isoform, or with tags, fused parts or gaps): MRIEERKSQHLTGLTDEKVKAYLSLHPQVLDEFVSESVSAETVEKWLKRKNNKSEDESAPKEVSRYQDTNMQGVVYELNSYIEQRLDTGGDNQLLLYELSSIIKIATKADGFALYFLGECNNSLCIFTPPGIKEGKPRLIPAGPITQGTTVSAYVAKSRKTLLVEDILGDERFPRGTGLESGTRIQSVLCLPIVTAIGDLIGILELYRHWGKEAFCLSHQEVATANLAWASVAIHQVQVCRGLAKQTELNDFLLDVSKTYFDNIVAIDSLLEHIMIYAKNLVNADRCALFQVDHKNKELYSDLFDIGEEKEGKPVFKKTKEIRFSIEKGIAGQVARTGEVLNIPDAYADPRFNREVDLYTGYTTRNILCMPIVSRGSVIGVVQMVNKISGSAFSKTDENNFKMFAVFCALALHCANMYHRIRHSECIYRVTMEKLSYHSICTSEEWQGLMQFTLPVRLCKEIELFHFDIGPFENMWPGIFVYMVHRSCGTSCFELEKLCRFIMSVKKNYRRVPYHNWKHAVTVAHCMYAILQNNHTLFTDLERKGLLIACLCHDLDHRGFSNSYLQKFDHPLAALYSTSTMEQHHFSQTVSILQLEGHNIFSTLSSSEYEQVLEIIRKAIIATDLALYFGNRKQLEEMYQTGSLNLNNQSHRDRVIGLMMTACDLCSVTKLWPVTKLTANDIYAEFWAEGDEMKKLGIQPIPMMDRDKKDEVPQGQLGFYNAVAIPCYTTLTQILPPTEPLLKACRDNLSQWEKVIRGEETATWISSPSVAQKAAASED

Row | IC50 [nM] | SMILES
1 | 7.3 | Cn1cc(NC(=O)c2nc(C3CC3)ccc2Nc2cncnc2)c(C(=O)N2CCC(C)(C)C2)n1 [Example 32, 6-Cyclopropyl-3-(pyrimidin-5-ylamino)-pyridine-2-carboxylic acid [3-(3,3-dimethyl-pyrrolidine-1-carbonyl)-1-methyl-1H-pyrazol-4-yl]-amide]
2 | 3.1 | Cn1cc(NC(=O)c2nc(C3CC3)ccc2Nc2cncnc2)c(C(=O)NC2CCC2)n1 [Example 33, 6-Cyclopropyl-3-(pyrimidin-5-ylamino)-pyridine-2-carboxylic acid (3-cyclobutylcarbamoyl-1-methyl-1H-pyrazol-4-yl)-amide]
3 | 4.5 | Cn1cc(NC(=O)c2nc(C3CC3)ccc2Nc2cncnc2)c(C(=O)NC2CCCC2)n1 [Example 34, 6-Cyclopropyl-3-(pyrimidin-5-ylamino)-pyridine-2-carboxylic acid (3-cyclopentylcarbamoyl-1-methyl-1H-pyrazol-4-yl)-amide]
4 | 45.7 | CC1CCC(C)N1C(=O)c1nn(C)cc1NC(=O)c1nc(C2CC2)ccc1Nc1cncnc1 (stereo not shown) [Example 35, 6-Cyclopropyl-3-(pyrimidin-5-ylamino)-pyridine-2-carboxylic acid [3-(2,5-dimethyl-pyrrolidine-1-carbonyl)-1-methyl-1H-pyrazol-4-yl]-amide]
5 | 3.2 | Cn1cc(NC(=O)c2nc(C3CC3)ccc2Nc2cncnc2)c(C(=O)N2CCC(F)(F)C2)n1 [Example 36, 6-Cyclopropyl-3-(pyrimidin-5-ylamino)-pyridine-2-carboxylic acid [3-(3,3-difluoro-pyrrolidine-1-carbonyl)-1-methyl-1H-pyrazol-4-yl]-amide]
6 | 18.1 | CN(C)C1CCN(C(=O)c2nn(C)cc2NC(=O)c2nc(C3CC3)ccc2Nc2cncnc2)C1 (stereo not shown) [Example 37, 6-Cyclopropyl-3-(pyrimidin-5-ylamino)-pyridine-2-carboxylic acid [3-(3-dimethylamino-pyrrolidine-1-carbonyl)-1-methyl-1H-pyrazol-4-yl]-amide]
7 | 7.2 | CN(CCCO)C(=O)c1nn(C)cc1NC(=O)c1nc(C2CC2)ccc1Nc1cncnc1 [Example 38, 6-Cyclopropyl-3-(pyrimidin-5-ylamino)-pyridine-2-carboxylic acid {3-[(3-hydroxy-propyl)-methyl-carbamoyl]-1-methyl-1H-pyrazol-4-yl}-amide]
8 | 7.5 | CN(CCO)C(=O)c1nn(C)cc1NC(=O)c1nc(C2CC2)ccc1Nc1cncnc1 [Example 40, 6-Cyclopropyl-3-(pyrimidin-5-ylamino)-pyridine-2-carboxylic acid {3-[(2-hydroxy-ethyl)-methyl-carbamoyl]-1-methyl-1H-pyrazol-4-yl}-amide]
9 | 6.9 | COCC(C)NC(=O)c1nn(C)cc1NC(=O)c1nc(C2CC2)ccc1Nc1cncnc1 (stereo not shown) [Example 41, 6-Cyclopropyl-3-(pyrimidin-5-ylamino)-pyridine-2-carboxylic acid [3-(2-methoxy-1-methyl-ethylcarbamoyl)-1-methyl-1H-pyrazol-4-yl]-amide]
10 | 8.1 | Cn1cc(NC(=O)c2nc(C3CC3)ccc2Nc2cncnc2)c(C(=O)NCC(O)CO)n1 (stereo not shown) [Example 42, 6-Cyclopropyl-3-(pyrimidin-5-ylamino)-pyridine-2-carboxylic acid [3-(2,3-dihydroxy-propylcarbamoyl)-1-methyl-1H-pyrazol-4-yl]-amide]
11 | 3.1 | Cn1cc(NC(=O)c2nc(C3CC3)ccc2Nc2cncnc2)c(C(=O)NCC(C)(C)O)n1 [Example 43, 6-Cyclopropyl-3-(pyrimidin-5-ylamino)-pyridine-2-carboxylic acid [3-(2-hydroxy-2-methyl-propylcarbamoyl)-1-methyl-1H-pyrazol-4-yl]-amide]
12 | 27.4 | Cn1cc(NC(=O)c2nc(C3CC3)ccc2Nc2cncnc2)c(C(=O)N2CCC(O)C2)n1 (stereo not shown) [Example 44, 6-Cyclopropyl-3-(pyrimidin-5-ylamino)-pyridine-2-carboxylic acid [3-(3-hydroxy-pyrrolidine-1-carbonyl)-1-methyl-1H-pyrazol-4-yl]-amide]
13 | 17.1 | CC(CO)NC(=O)c1nn(C)cc1NC(=O)c1nc(C2CC2)ccc1Nc1cncnc1 (stereo not shown) [Example 45, 6-Cyclopropyl-3-(pyrimidin-5-ylamino)-pyridine-2-carboxylic acid [3-(2-hydroxy-1-methyl-ethylcarbamoyl)-1-methyl-1H-pyrazol-4-yl]-amide]
14 | 19.3 | CN(CC(O)CO)C(=O)c1nn(C)cc1NC(=O)c1nc(C2CC2)ccc1Nc1cncnc1 (stereo not shown) [Example 46, 6-Cyclopropyl-3-(pyrimidin-5-ylamino)-pyridine-2-carboxylic acid {3-[(2,3-dihydroxy-propyl)-methyl-carbamoyl]-1-methyl-1H-pyrazol-4-yl}-amide]
15 | 13.2 | Cn1cc(NC(=O)c2nc(C3CC3)ccc2Nc2cncnc2)c(C(=O)N2CCNC(=O)C2)n1 [Example 47, 6-Cyclopropyl-3-(pyrimidin-5-ylamino)-pyridine-2-carboxylic acid [1-methyl-3-(3-oxo-piperazine-1-carbonyl)-1H-pyrazol-4-yl]-amide]
16 | 8.3 | COC1CCN(C(=O)c2nn(C)cc2NC(=O)c2nc(C3CC3)ccc2Nc2cncnc2)C1 (stereo not shown) [Example 48, 6-Cyclopropyl-3-(pyrimidin-5-ylamino)-pyridine-2-carboxylic acid [3-(3-methoxy-pyrrolidine-1-carbonyl)-1-methyl-1H-pyrazol-4-yl]-amide]
17 | 3.9 | Cn1cc(NC(=O)c2nc(C3CC3)ccc2Nc2cncnc2)c(C(=O)N2CCCC2CO)n1 (stereo not shown) [Example 49, 6-Cyclopropyl-3-(pyrimidin-5-ylamino)-pyridine-2-carboxylic acid [3-(2-hydroxymethyl-pyrrolidine-1-carbonyl)-1-methyl-1H-pyrazol-4-yl]-amide]
18 | 31.7 | Cn1cc(NC(=O)c2nc(C3CC3)ccc2Nc2cncnc2)c(C(=O)N2CC(O)C2)n1 [Example 50, 6-Cyclopropyl-3-(pyrimidin-5-ylamino)-pyridine-2-carboxylic acid [3-(3-hydroxy-azetidine-1-carbonyl)-1-methyl-1H-pyrazol-4-yl]-amide]
19 | 58 | Cn1cc(NC(=O)c2nc(C3CC3)ccc2Nc2cncnc2)c(C(=O)N2CC3(COC3)C2)n1 [Example 51, 6-Cyclopropyl-3-(pyrimidin-5-ylamino)-pyridine-2-carboxylic acid [1-methyl-3-(2-oxa-6-aza-spiro[3.3]heptane-6-carbonyl)-1H-pyrazol-4-yl]-amide]
20 | 73.7 | CN(C)C1CCN(C(=O)c2ccncc2NC(=O)c2nc(C3CC3)ccc2Nc2cncnc2)C1 (stereo not shown) [Example 53, 6-Cyclopropyl-3-(pyrimidin-5-ylamino)-pyridine-2-carboxylic acid [4-(3-dimethylamino-pyrrolidine-1-carbonyl)-pyridin-3-yl]-amide]
21 | 25 | CNC(=O)c1nnsc1NC(=O)c1nc(C2CC2)ccc1Nc1cncnc1 [Example 54, 6-Cyclopropyl-3-(pyrimidin-5-ylamino)-pyridine-2-carboxylic acid (4-methylcarbamoyl-[1,2,3]thiadiazol-5-yl)-amide]
22 | 115 | CC1CCCN1C(=O)c1ccncc1NC(=O)c1nc(C2CC2)ccc1Nc1cncnc1 (stereo not shown) [Example 55, 6-Cyclopropyl-3-(pyrimidin-5-ylamino)-pyridine-2-carboxylic acid [4-(2-methyl-pyrrolidine-1-carbonyl)-pyridin-3-yl]-amide]
